Reference: US20250221981A1, “MAT2A INHIBITOR AND/OR TSG101 INHIBITOR FOR USE IN ANTIVIRAL THERAPY” (CAMBRIDGE ENTERPRISE LIMITED, priority 2022, published 2025)

Tests used:
BKPyV [1] = assay: Western blot of BKPyV viral protein expression (LTAg, VP1) in RPTE/TERT1 cells; type: cell-based, BK polyomavirus
Procedure: (C)(i) Effect of PF-9366 on viral early and late gene and cellular MAT2A expression: Cells were infected with BKPyV (MOI 3) in media containing appropriate drug concentrations. At 1 hpi infectious media was removed, cells were washed and fresh media with appropriate drug concentrations was added. Cells were harvested at 48 hpi and a western blot performed. Membranes were blotted for viral late gene VP1, LTAg, cellular MAT2A/MAT1A, and tubulin as a loading control.
(iii) Viral gene expression is modulated in response to PF-9366: The density of BKPyV VP1 and LTAg expression were measured, normalized to tubulin loading control (LiCor Image Studio Software), n=3.
Cells were treated with MAT2A inhibitors at 1 hr post infection and were harvested at 48 hr post infection at MOI 1. (A) Total infectious BKPyV synthesis expressed as fold change to DMSO control (FFU titre assay). (B) Total viral protein expression (LTAg and VP1) was analysed by western blot. Tubulin was used as loading control. All error bars represent SEM. Two sample paired T-test was used to determine significance (*p<0.05; **p<0.01; ***p<0.001, ****p<0.0001), all numerical data shown were obtained over 2 independent experiments.
RPTE/hTERT cells were treated with inhibitors at 1 hr post infection (PI), infected at MOI 1. (A) Viral growth curves using FFU titre assay in drug treated and untreated cells infected with BKPyV at MOI 1 for 48 hr PI, 72 hr PI and 96 hr PI. (B) Total viral protein expression (LTAg and VP1) from drug treatments and untreated control was analysed by western blot with samples harvested at 48 hr PI and 96 hr PI. Tubulin was used as loading control. All error bars represent SEM. All numerical data shown were obtained over 2 independent experiments.
It has previously been noted by Quinlan et al. (Nat Chem Biol. 2017 13 (7): 785-792) that treatment with PF-9366 can increase MAT2A expression as a compensatory mechanism within cells. To investigate this, cells were once again treated with a range of PF-9366 for 3 hours prior to infection (or DMSO treated). Cells were infected with BKPyV (MOI 3), washed at 1 hpi, and fresh drug treated media was added. At 48 hpi cells were harvested and protein expression was analysed by western blotting (FIG. 3C(i)). MAT2A expression was quantified from band intensities, normalised to the tubulin loading control and plotted (FIG. 3C(ii), n=3). A clear increase in the cellular expression of MAT2A was observed, up to an 8-fold increase at 10 μM PF-9366. Western blot analysis was also conducted on early viral gene (LTAg) and late viral gene (VP1) expression (FIG. 3C(iii), n=3).
Cell lysate preparation and western blots were performed as described in Ren et al. (J Gen Virol. 2012 February; 93 (Pt 2): 319-329). Primary antibodies used were ab53977 (VP1), PAb416 (LTAg), sc-166452 (MAT2A/1A), ab110226 (VP16), sc-53070 (ICP0), anti-Zika E Protein, and either anti-GAPDH or anti-tubulin as a loading control, followed by IRDye 680LT-, or IRDye 800CW-conjugated secondary antibodies. Imaging was performed using the LI-COR Odyssey Infrared Imaging system. Quantification was performed using LI-COR Image Studio Software.

BKPyV [2] = assay: BKPyV infection of RPTE/TERT1 cells, immunofluorescence count of LTAg / VP1 positive cells; type: cell-based, BK polyomavirus; conditions: 48 hpi; for early gene (LTAg) expression, LTAg positive cells as a proportion of DAPI-positive cells / late gene (VP1) expression, VP1 positive cells as a proportion of DAPI-positive cells: particularly at double proliferative IC50 (20 µM PF-9366, 514 nM AG-270), MOI 1
Procedure: (A) Effect of PF-9366 on viral early gene expression: Cells were infected with BKPyV (MOI 1) in media containing appropriate drug concentrations. At 1 hpi infectious media was removed, cells were washed and fresh media with appropriate drug concentrations was added. Cells were formaldehyde fixed at 48 hpi and stained for DAPI and LTAg expression and detected by fluorescence microscopy. The number of infected LTAg positive cells were recorded, normalized to cell number. n=3.
Effect of drug treatment on cellular replication and survival and viral early gene expression: Cells were infected with BKPyV (MOI 1) in media containing appropriate drug concentrations. At 1 hpi infectious media was removed, cells were washed and fresh media with appropriate drug concentrations was added. Cells were formaldehyde fixed at 48 hpi and stained for nuclear DAPI and LTAg expression, then detected by fluorescence microscopy. The number of cells per well were determined through DAPI analysis (i) Effect of drug treatment on viral early and late gene expression: The number of infected cells were determined by LTAg (early gene) and VP1 (late gene) expression (ii).
Treatment began 3 hours prior to infection and continued throughout infection. Cells were infected with BKPyV (MOI 1), at 1 hpi cells were washed with PBS and replenished with fresh drug treated media. At 48 hpi cells were fixed with 3% formaldehyde and stained for LTAg expression, and the nuclei counterstained with DAPI. The number of LTAg positive cells were counted and normalised to the total cell number in each condition, and the fold change in proportion of LTAg positive cells for each concentration of PF-9366 was normalised to untreated control.
To investigate whether MAT2A inhibition by a structurally different inhibitor to PF-9366 could cause similar effects, the effect of AG-270 on BKPyV infection was investigated. As above, drugs were used to treat cells from 3 hours prior to infection. Drug concentrations used were the IC50 value defined by inhibition of cell proliferation (proliferative IC50) or double the proliferative IC50, and DMSO was used as a control. Cells were infected with BKPyV (MOI 1), at 1 hpi cells were washed and fresh drug-containing media was added. At 48 hpi cells were fixed in 3% formaldehyde and stained for DAPI, viral early gene LTAg, and viral late gene VP1. The number of cells in each condition were counted and normalised to DMSO treated cells (FIG. 4A(i)). The number of cells represents both cell viability, and the ability of the drug in question to inhibit cellular proliferation.
For BKPyV infections, RPTE/TERT1, RPTE/TERT1-Cas9 or RPTE/TERT1 MAT2A KO cells were infected with BKPyV at either a multiplicity of infection (MOI) of 5 for growth curves or an MOI of 3 or 1 for all other experiments, diluted in appropriate medium. At 1 hour post infection (hpi) medium was removed, cells were washed twice with phosphate-buffered saline (PBS), and fresh medium was added with or without inhibitors. At 24, 48, 72 or 96 hpi cells were either harvested for western blot, RT qPCR or virus titre by FFU assay, or fixed for immunofluorescence analysis.
For fluorescence intensity analysis, 20 fields of view were captured for each experiment. All quantification analyses were carried out using ImageJ and an optimised robust automated detection pipeline Schindelin et al. (Nat Methods. 2012 Jun. 28; 9 (7): 676-82). […] LTAg-staining patterns across each field of view were measured by quantifying the fluorescence intensity using the Mean Grey Value (MGV) function of ImageJ and averaging the results for each experimental condition. Individual cell fluorescence intensity was determined by drawing polygon selections around each LTAg-positive nuclei in ImageJ and measuring the nuclear area, MGV and integrated density, then doing the same for background areas close to each nuclei measured. […]

[3] = 125 nM to 1 μM, dose dependent, MOI 1, 48 hr post infection

Compound | VP1 expression (western blot) (BKPyV [1]; across the concentration range of PF-9366, BKPyV MOI 3, 48 hpi) | expression of LTAg (western blot) (BKPyV [1]; two highest concentrations of PF-9366, BKPyV MOI 3, 48 hpi) | reduction in LTAg positive cells (BKPyV [2]; 40 μM, BKPyV MOI 1, normalised to untreated control) | number of LTAg positive cells (BKPyV [2]; PF-9366 concentrations of 5 μM and above, BKPyV MOI 1, treatment from 3 h prior to infection) | early gene (LTAg) expression, LTAg positive cells as a proportion of DAPI-positive cells (BKPyV [2]) | late gene (VP1) expression, VP1 positive cells as a proportion of DAPI-positive cells (BKPyV [2]) | early viral protein (LTAg) levels (western blot) (BKPyV [1]; [3]) | late viral protein (VP1) levels (western blot) (BKPyV [1]; [3])
CN(C)CCc1nnc2cc(-c3ccccc3)c3cc(Cl)ccc3n12 [PF-9366] | dose-dependent reduction | Reduced expression | ~95% | significantly reduced | reduced | reduced |  | 
COc1ccc(-c2c(Nc3ccccn3)[nH]c3c(C4=CCCCC4)c(-c4ccccc4)nn3c2=O)cc1 [AG-270] |  |  |  |  | reduced | reduced | reduced | reduced
